Test results published in ChEMBL document CHEMBL4130359, “Indazole-based ligands for estrogen-related receptor α as potential anti-diabetic agents” (Eur J Med Chem, 2017).

How the values were obtained:
[1] = system: Rattus norvegicus; assay: Decrease in fed plasma triglyceride level in Zucker rat sub-chronic fa/fa prediabetic model assessed as change in plasma triglyceride level at 10 mg/kg, po qd for 4 days measured on day 5 relative to control; format: functional; design: scale not given: the % may be the effect or the level left
[2] = system: Rattus norvegicus; assay: Decrease in fed plasma insulin level in Zucker rat sub-chronic fa/fa prediabetic model assessed as change in plasma insulin level at 10 mg/kg, po qd for 4 days measured on day 5 relative to control; format: functional; design: scale not given: the % may be the effect or the level left
[3] = molecular target: Voltage-gated inwardly rectifying potassium channel KCNH2 (Homo sapiens, UniProt Q12809); assay: Displacement of [3H]astemizole from human ERG; conditions: for inhibition (INH): human
Voltage-gated inwardly rectifying potassium channel KCNH2, sequence (Q12809 whole entry, the tested form may be a part): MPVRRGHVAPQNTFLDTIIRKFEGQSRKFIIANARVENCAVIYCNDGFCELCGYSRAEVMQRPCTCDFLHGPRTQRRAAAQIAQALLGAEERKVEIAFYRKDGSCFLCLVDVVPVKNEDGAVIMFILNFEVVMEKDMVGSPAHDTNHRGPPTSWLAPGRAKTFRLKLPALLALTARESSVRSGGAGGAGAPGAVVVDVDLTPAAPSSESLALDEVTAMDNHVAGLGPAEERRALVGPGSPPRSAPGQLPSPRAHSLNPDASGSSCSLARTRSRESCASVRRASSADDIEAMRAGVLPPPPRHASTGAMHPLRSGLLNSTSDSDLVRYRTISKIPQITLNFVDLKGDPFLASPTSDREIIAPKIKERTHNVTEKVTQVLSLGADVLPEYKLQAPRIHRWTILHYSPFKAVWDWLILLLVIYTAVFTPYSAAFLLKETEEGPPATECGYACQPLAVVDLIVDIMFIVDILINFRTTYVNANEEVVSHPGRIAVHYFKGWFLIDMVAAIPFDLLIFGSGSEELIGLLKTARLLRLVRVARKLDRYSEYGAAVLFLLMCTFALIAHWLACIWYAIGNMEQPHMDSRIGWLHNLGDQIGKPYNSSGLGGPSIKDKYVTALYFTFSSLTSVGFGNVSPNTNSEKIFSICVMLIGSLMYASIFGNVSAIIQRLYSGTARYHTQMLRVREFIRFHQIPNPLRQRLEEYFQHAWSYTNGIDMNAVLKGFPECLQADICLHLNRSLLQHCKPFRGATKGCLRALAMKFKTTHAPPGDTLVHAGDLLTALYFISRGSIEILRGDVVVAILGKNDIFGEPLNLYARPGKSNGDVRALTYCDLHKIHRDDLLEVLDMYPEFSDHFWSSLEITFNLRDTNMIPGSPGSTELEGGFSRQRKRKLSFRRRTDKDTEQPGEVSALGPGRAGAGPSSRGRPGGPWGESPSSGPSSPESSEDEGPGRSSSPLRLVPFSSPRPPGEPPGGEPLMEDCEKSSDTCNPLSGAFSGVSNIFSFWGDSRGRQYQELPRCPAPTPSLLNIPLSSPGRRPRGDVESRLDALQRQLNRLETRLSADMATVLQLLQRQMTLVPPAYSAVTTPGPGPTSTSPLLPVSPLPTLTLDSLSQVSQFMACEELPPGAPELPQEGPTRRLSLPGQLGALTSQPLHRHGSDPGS

[4] = molecular target: T1, Steroid hormone receptor ERR1 (Homo sapiens, UniProt P11474); assay: Antagonist activity at His6-tagged ERRalpha LBD (unknown origin) assessed as inhibition of GST-tagged SRC-2 co-activator peptide recruitment after 18 hrs by TR-FRET assay
T1 sequence (P11474 whole entry): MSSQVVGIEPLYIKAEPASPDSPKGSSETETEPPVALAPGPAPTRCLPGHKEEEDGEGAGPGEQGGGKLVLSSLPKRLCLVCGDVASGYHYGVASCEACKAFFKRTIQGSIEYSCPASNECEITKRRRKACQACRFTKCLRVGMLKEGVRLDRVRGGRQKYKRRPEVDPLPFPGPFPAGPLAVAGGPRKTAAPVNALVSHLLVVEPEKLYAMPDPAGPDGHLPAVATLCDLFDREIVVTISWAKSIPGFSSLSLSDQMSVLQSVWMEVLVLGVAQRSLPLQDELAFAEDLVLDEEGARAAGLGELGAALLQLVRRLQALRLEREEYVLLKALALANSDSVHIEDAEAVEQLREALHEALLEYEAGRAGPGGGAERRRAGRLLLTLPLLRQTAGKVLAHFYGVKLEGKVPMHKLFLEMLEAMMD

[5] = Drug uptake in Sprague-Dawley rat plasma at 10 mg/kg, po via gavage by LC-MS analysis; format: ADME, organism-based; conditions: in vivo
[6] = system: Rattus norvegicus; assay: Antidiabetic activity in Zucker rat sub-chronic fa/fa prediabetic model assessed as decrease in plasma glucose AUC (0 to 120 mins) at 10 mg/kg, po qd during 10 days study by OGTT relative to control; format: functional; design: scale not given: the % may be the effect or the level left
[7] = system: Rattus norvegicus; assay: Toxicity in Zucker rat sub-chronic fa/fa prediabetic model assessed as increase in body weight at 10 mg/kg, po qd during 10 days study; format: organism-based; conditions: in vivo, 240 h
[8] = system: Rattus norvegicus; assay: Toxicity in Zucker rat sub-chronic fa/fa prediabetic model assessed as effect on liver enzymes at 10 mg/kg, po qd during 10 days study; format: organism-based; conditions: in vivo, 240 h
[9] = system: Rattus norvegicus; assay: Toxicity in Zucker rat sub-chronic fa/fa prediabetic model assessed as increase in food consumption at 10 mg/kg, po qd during 10 days study; format: organism-based; conditions: in vivo, 240 h
[10] = system: Rattus norvegicus; assay: Decrease in fed plasma glucose level in Zucker rat sub-chronic fa/fa prediabetic model at 10 mg/kg, po qd for 4 days measured on day 5 relative to control; format: functional; design: scale not given: the % may be the effect or the level left
[11] = molecular target: Steroid hormone receptor ERR2 (Homo sapiens, UniProt O95718); assay: Antagonist activity at recombinant GST-tagged human ERRbeta LBD assessed as inhibition of fluorescein-labeled coactivator peptide recruitment preincubated with enzyme followed by coactivator addition by LanthaScreen TR-FRET assay
Steroid hormone receptor ERR2, sequence (O95718 whole entry, the tested form may be a part): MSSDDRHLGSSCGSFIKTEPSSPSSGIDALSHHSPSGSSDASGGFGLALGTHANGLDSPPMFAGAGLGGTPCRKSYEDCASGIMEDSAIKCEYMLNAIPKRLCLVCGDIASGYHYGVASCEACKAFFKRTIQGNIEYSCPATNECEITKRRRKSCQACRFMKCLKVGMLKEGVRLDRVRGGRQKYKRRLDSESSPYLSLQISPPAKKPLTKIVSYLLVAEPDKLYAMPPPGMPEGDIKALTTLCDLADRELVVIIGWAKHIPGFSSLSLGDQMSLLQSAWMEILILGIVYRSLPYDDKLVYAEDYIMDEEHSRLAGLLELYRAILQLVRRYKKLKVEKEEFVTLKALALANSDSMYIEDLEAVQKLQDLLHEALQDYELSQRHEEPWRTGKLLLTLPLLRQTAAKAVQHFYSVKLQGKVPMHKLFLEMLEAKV

[12] = molecular target: Cytochrome P450 3A4 (Homo sapiens, UniProt P08684); assay: Inhibition of CYP3A4 (unknown origin) in microsomes; format: ADME
Cytochrome P450 3A4, sequence (P08684 whole entry): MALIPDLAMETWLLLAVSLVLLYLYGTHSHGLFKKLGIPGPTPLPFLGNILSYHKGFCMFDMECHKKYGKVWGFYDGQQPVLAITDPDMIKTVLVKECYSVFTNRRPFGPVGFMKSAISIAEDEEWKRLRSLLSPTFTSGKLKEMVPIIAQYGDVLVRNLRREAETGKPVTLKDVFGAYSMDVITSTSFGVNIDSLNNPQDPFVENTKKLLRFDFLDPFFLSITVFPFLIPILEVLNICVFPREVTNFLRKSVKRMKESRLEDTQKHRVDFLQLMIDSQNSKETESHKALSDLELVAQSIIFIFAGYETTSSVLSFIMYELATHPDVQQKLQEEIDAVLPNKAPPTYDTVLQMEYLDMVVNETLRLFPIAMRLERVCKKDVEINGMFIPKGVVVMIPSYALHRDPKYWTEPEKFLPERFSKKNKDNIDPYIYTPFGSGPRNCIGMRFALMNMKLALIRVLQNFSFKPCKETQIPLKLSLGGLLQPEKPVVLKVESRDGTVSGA

[13] = molecular target: Cytochrome P450 2C19 (Homo sapiens, UniProt P33261); assay: Inhibition of CYP2C19 (unknown origin) in microsomes; format: ADME
Cytochrome P450 2C19, sequence (P33261 whole entry): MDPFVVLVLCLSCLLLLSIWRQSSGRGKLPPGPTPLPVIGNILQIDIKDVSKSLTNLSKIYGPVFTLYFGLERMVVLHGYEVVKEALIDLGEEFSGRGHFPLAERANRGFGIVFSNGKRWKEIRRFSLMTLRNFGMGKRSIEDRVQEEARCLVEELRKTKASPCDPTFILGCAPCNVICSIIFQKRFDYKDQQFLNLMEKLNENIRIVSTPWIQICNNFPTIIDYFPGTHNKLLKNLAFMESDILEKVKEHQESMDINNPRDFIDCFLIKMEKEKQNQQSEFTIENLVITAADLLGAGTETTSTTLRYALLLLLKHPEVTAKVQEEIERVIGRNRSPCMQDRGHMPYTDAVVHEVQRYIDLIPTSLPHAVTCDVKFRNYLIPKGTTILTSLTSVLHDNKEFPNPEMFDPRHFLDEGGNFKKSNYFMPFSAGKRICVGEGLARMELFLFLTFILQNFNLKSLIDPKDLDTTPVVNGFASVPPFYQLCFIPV

[14] = molecular target: Cytochrome P450 2C9 (Homo sapiens, UniProt P11712); assay: Inhibition of CYP2C9 (unknown origin) in microsomes; format: ADME
Cytochrome P450 2C9, sequence (P11712 whole entry): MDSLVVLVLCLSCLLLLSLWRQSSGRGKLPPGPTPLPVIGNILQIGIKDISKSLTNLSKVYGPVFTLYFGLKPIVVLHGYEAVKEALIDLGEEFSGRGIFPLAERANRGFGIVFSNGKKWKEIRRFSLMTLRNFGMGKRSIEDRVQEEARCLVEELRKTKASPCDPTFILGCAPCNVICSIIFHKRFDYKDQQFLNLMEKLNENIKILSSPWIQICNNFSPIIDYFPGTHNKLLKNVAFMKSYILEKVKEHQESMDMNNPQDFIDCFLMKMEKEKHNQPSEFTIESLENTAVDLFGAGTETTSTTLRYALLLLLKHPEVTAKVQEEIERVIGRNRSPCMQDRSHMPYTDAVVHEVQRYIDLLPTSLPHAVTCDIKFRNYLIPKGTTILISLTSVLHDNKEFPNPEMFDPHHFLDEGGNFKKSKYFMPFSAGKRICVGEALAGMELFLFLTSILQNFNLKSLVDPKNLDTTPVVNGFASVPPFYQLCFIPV

[15] = system: Rattus norvegicus; assay: Decrease in fed plasma free fatty acid level in Zucker rat sub-chronic fa/fa prediabetic model at 10 mg/kg, po qd for 4 days measured on day 5 relative to control; format: functional; design: scale not given: the % may be the effect or the level left
[16] = system: Rattus norvegicus; assay: Toxicity in Zucker rat sub-chronic fa/fa prediabetic model assessed as increase in body weight at 10 mg/kg, po qd for 4 days; format: organism-based; conditions: in vivo, 96 h

Row | Compound | Activity [1] [%] | Activity [2] [%] | IC50 [4] [µM] | also measured
1 | N[C@@H](CO)CN1C(=O)S/C(=C\c2ccc3c(cnn3Cc3ccc(Cl)cc3C(F)(F)F)c2)C1=O | -45 | -33 | 0.023 | inhibition (INH) [3]: Active; Cp [5]: < 0.1 µg/mL
2 | COc1ccc(Cn2ncc3cc(/C=C4\SC(=O)N(C5CCC(C(=O)O)CC5)C4=O)ccc32)c(C(F)(F)F)c1 (configuration not stated) | 32 | -11 | – | –
3 | O=C(O)CN1C(=O)S/C(=C\c2ccc3c(cnn3Cc3ccc(C(F)(F)F)cc3C(F)(F)F)c2)C1=O | – | – | 0.026 | –
4 | O=C1S/C(=C\c2ccc3c(cnn3Cc3ccc(Cl)cc3C(F)(F)F)c2)C(=O)N1CCN1CCCC1 | -30 | -49 | 0.017 | inhibition (INH) [3]: Active; Cp [5]: < 0.1 µg/mL
5 | COc1ccc(Cn2ncc3cc(/C=C4\SC(=O)N(CC(=O)O)C4=O)ccc32)c(C(F)(F)F)c1 | 21 | -9 | 0.009 | –
6 | O=C1S/C(=C\c2ccc3c(cnn3Cc3ccc(C(F)(F)F)cc3C(F)(F)F)c2)C(=O)N1CCN1CCCC1 | – | – | 0.58 | –
7 | O=C1S/C(=C\c2ccc3c(cnn3Cc3ccc(Cl)cc3C(F)(F)F)c2)C(=O)N1C1CCN(CCO)CC1 | -40 | -77 | 0.015 | inhibition (INH) [3]: Active
8 | O=C(O)C1CCC(N2C(=O)S/C(=C\c3ccc4c(cnn4Cc4ccc(Cl)cc4C(F)(F)F)c3)C2=O)CC1 (configuration not stated) | -19 | -30 | 0.012 | –
9 | C[C@H](N)CN1C(=O)S/C(=C\c2ccc3c(cnn3Cc3ccc(Cl)cc3C(F)(F)F)c2)C1=O | -55 | -60 | 0.024 | Cp [5]: < 0.1 µg/mL
10 | O=C(O)CN1C(=O)S/C(=C\c2ccc3c(cnn3Cc3ccc(Cl)cc3C(F)(F)F)c2)C1=O | -14 | -50 | 0.009 | –
11 | COc1ccc(Cn2ncc3cc(/C=C4\SC(=O)N(CCN5CCOCC5)C4=O)ccc32)c(C(F)(F)F)c1 | -19 | -21 | 0.008 | –
12 | O=C1S/C(=C\c2ccc3c(cnn3Cc3ccc(Cl)cc3C(F)(F)F)c2)C(=O)N1C[C@H]1COCCN1 | -61 | -52 | 0.015 | inhibition (INH) [3]: Active; Cp [5]: < 0.1 µg/mL
13 | CN1CC[C@H](N2C(=O)S/C(=C\c3ccc4c(cnn4Cc4ccc(Cl)cc4C(F)(F)F)c3)C2=O)[C@@H](F)C1 | -51 | -52 | 0.022 | Activity [6]: -37%; Activity [7]: Toxic; Activity [8]: Toxic; Activity [9]: Toxic; Activity [10]: -27%
14 | CCC(=C(c1ccc(O)cc1)c1ccc(OCCN(C)C)cc1)c1ccccc1 | – | – | – | IC50 [11]: 0.886 µM
15 | O=C1S/C(=C\c2ccc3c(cnn3Cc3ccc(Cl)cc3C(F)(F)F)c2)C(=O)N1CCN1CCOCC1 | – | – | 0.043 | –
16 | CN(C)S(=O)(=O)NC(=O)CN1C(=O)S/C(=C\c2ccc3c(cnn3Cc3ccc(Cl)cc3C(F)(F)F)c2)C1=O | -46 | -29 | 0.023 | –

Row | Compound | Activity [1] [%] | Activity [2] [%] | IC50 [4] [µM] | also measured
17 | O=C1S/C(=C\c2ccc3c(cnn3Cc3ccc(Cl)cc3C(F)(F)F)c2)C(=O)N1[C@@H]1CCNC[C@H]1F (relative stereo) | – | – | 0.034 | IC50 [3]: 21 µM
18 | NS(=O)(=O)NC(=O)CN1C(=O)S/C(=C\c2ccc3c(cnn3Cc3ccc(Cl)cc3C(F)(F)F)c2)C1=O | -14 | -51 | 0.019 | –
19 | O=C1S/C(=C\c2ccc3c(cnn3Cc3ccc(Cl)cc3C(F)(F)F)c2)C(=O)N1C1CCNCC1 | – | – | 0.016 | inhibition (INH) [12]: Active; inhibition (INH) [13]: Active; inhibition (INH) [14]: Active
20 | CN1CC[C@H](N2C(=O)S/C(=C\c3ccc4c(cnn4Cc4ccc(Cl)cc4C(F)(F)F)c3)C2=O)[C@H](F)C1 (relative stereo) | -57 | -73 | 0.045 | Activity [15]: -35%; inhibition (INH) [12]: Not Active; inhibition (INH) [13]: Not Active; Activity [16]: Non-Toxic; inhibition (INH) [14]: Not Active; inhibition (INH) [3]: Not Active; Activity [10]: -43%
21 | O=C(CN1C(=O)S/C(=C\c2ccc3c(cnn3Cc3ccc(Cl)cc3C(F)(F)F)c2)C1=O)NS(=O)(=O)N1CCCC1 | 1 | -47 | 0.025 | Drug uptake [5]: Active
22 | CN1CCC[C@H]1CN1C(=O)S/C(=C\c2ccc3c(cnn3Cc3ccc(Cl)cc3C(F)(F)F)c2)C1=O | -37 | -59 | 0.005 | Cp [5]: < 0.1 µg/mL
23 | O=C1S/C(=C\c2ccc3c(cnn3Cc3ccc(Cl)cc3C(F)(F)F)c2)C(=O)N1[C@@H]1CCNC[C@H]1O (relative stereo) | – | – | 0.025 | inhibition (INH) [3]: Active
24 | CN1CCC(N2C(=O)S/C(=C\c3ccc4c(cnn4Cc4ccc(Cl)cc4C(F)(F)F)c3)C2=O)CC1 | – | – | 0.019 | inhibition (INH) [12]: Active
25 | COc1ccc(Cn2ncc3cc(/C=C4\SC(=O)N(CCN5CCCC5)C4=O)ccc32)c(C(F)(F)F)c1 | – | – | 0.046 | –
26 | CN1CC[C@@H](N2C(=O)S/C(=C\c3ccc4c(cnn4Cc4ccc(Cl)cc4C(F)(F)F)c3)C2=O)[C@H](O)C1 (relative stereo) | – | – | 0.023 | inhibition (INH) [3]: Active
27 | O=C1S/C(=C\c2ccc3c(cnn3Cc3ccc(Cl)cc3C(F)(F)F)c2)C(=O)N1Cc1nnn[nH]1 | -51 | -44 | 0.013 | –
28 | Cc1nn(Cc2ccc(Cl)cc2C(F)(F)F)c2ccc(/C=C3\SC(=O)N(CC(=O)NS(=O)(=O)N4CCCC4)C3=O)cc12 | -23 | -10 | 0.054 | Drug uptake [5]: Active
29 | CS(=O)(=O)NC(=O)CN1C(=O)S/C(=C\c2ccc3c(cnn3Cc3ccc(Cl)cc3C(F)(F)F)c2)C1=O | 13 | -14 | 0.018 | –
30 | CC(=O)NS(=O)(=O)CN1C(=O)S/C(=C\c2ccc3c(cnn3Cc3ccc(Cl)cc3C(F)(F)F)c2)C1=O | -37 | -58 | 0.008 | –
31 | Cc1nn(Cc2ccc(Cl)cc2C(F)(F)F)c2ccc(/C=C3\SC(=O)N(CC(=O)O)C3=O)cc12 | -4 | -18 | 0.028 | –
